Laboratory results reported in patent US12612424B2, “HPK1 inhibitors and uses thereof” (Regor Pharmaceuticals, Inc., priority 2019, dated 2026).

Assays:
JAK3 = biological target: T1, JAK3 (Homo sapiens, UniProt P52333); assay: JAK3 biochemical assay (ADP-GLO Kinase Assay); settings: for IC50: B*: testing performed in a first testing facility, read-out: JAK3 IC50 (nM) Relative, B*; for JAKs/HPK1 IC50 Ratio, B*: ratio of JAK3 IC50 to HPK1 IC50, first testing facility
T1 construct: purchased Thermo fisher PV3855
T1 sequence (P52333 781-1124 limits assumed): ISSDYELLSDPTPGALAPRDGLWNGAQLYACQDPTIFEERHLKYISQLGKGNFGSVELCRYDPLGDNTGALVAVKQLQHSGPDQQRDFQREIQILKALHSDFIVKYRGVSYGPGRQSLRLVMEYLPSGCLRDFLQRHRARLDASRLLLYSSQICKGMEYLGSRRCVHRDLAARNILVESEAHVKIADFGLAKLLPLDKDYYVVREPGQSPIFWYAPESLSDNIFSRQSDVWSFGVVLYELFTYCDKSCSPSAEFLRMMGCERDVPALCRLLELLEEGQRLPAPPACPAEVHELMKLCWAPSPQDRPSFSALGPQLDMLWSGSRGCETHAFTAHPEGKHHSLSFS
Outline: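 Human JAK3 (0.78 ng) with 0.2 μg/μL Poly(E4Y1) and 4 μM ATP in 40 mM Tris pH 7.5, 20 mM MgCl2, 0.1 mg/ml BSA, 50 μM DTT, 1% DMSO; 60 min at 25 °C. ADP formed read by ADP-Glo luminescence. 10-dose 3-fold series from 10 μM; IC50 by three-parameter logistic fit.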

HPK1 = HPK1 (Homo sapiens, UniProt Q92918); assay: HPK1 biochemical assay (ADP-GLO Kinase Assay); settings: B*: testing performed in a first testing facility; read-out: HPK1 IC50 (nM) Relative, B*
HPK1, sequence (Q92918 whole entry): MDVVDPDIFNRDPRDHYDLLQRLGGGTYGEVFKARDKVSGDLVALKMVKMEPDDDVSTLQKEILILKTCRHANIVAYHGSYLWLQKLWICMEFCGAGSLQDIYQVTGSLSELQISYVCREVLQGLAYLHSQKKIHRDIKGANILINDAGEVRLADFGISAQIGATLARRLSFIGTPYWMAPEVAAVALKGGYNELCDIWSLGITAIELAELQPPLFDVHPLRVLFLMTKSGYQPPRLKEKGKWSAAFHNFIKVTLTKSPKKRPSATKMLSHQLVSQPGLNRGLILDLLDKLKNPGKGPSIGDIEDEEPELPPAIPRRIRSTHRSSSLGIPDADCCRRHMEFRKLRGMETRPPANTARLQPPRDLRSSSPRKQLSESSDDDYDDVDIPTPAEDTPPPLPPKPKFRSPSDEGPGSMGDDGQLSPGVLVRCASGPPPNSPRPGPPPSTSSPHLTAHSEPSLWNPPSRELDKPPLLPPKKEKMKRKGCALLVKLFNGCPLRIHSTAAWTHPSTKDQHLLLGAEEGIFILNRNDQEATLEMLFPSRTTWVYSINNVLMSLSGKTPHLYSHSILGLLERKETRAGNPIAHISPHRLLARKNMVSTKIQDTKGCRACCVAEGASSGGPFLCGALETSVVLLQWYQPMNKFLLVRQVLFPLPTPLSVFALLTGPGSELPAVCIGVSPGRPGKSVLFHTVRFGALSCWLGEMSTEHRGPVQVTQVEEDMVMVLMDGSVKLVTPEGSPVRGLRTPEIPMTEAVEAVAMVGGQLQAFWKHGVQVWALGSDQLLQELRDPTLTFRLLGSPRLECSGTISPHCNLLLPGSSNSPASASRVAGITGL
Outline: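 HPK1 (0.6 ng/μL final) activity was followed with MBP substrate and 10 μM ATP in Tris pH 7.5/MgCl2/BSA/DTT buffer, measured by ADP-Glo luminescence. Compounds were tested as 3-fold dilutions from 10 μM. IC50 came from a three-parameter logistic fit, with inhibition normalised to high/low controls.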

COc1cc2c(cc1Nc1ncc(Cl)c(N3CC(c4nn[nH]n4)c4ccccc43)n1)CN(C)CC2 (stereo not drawn) [Example 100, N-(4-(3-(2H-tetrazol-5-yl)indolin-1-yl)-5-chloropyrimidin-2-yl)-6-methoxy-2-methyl-1,2,3,4-tetrahydroisoquinolin-7-amine]
IC50 (JAK3): 100 to 500 nM
JAKs/HPK1 IC50 Ratio, B* (JAK3): 200
IC50 (HPK1): ≤ 100 nM

COc1cc2c(cc1Nc1ncc(Cl)c(N3CC(C(=O)NO)c4ccccc43)n1)CN(C)CC2 (stereo not drawn) [Example 101, 1-(5-Chloro-2-((6-methoxy-2-methyl-1,2,3,4-tetrahydroisoquinolin-7-yl)amino)pyrimidin-4-yl)-N-hydroxyindoline-3-carboxamide]
IC50 (JAK3): > 1000 nM
JAKs/HPK1 IC50 Ratio, B* (JAK3): 373
IC50 (HPK1): ≤ 100 nM

COc1cc2c(cc1Nc1ncc(Cl)c(N3CC(C(=O)N(C)O)c4ccccc43)n1)CN(C)CC2 (stereo not drawn) [Example 102]
IC50 (JAK3): > 1000 nM
JAKs/HPK1 IC50 Ratio, B* (JAK3): >2603
IC50 (HPK1): ≤ 100 nM

CONC(=O)C1CN(c2nc(Nc3cc4c(cc3OC)CCN(C)C4)ncc2Cl)c2ccccc21 (stereo not drawn) [Example 103, 1-(5-Chloro-2-((6-methoxy-2-methyl-1,2,3,4-tetrahydroisoquinolin-7-yl)amino)pyrimidin-4-yl)-N-methoxyindoline-3-carboxamide]
IC50 (JAK3): 500 to 1000 nM
JAKs/HPK1 IC50 Ratio, B* (JAK3): 540
IC50 (HPK1): ≤ 100 nM

COc1cc2c(cc1Nc1ncc(Cl)c(N3CC(C(=O)O)c4cc(F)ccc43)n1)CN(C)CC2 (stereo not drawn) [Example 104]
IC50 (JAK3): ≤ 100 nM
JAKs/HPK1 IC50 Ratio, B* (JAK3): 45
IC50 (HPK1): ≤ 100 nM

COc1cc2c(cc1Nc1ncc(Cl)c(N3CC(C(=O)O)c4ccc(F)cc43)n1)CN(C)CC2 (stereo not drawn) [Example 105]
IC50 (JAK3): 100 to 500 nM
JAKs/HPK1 IC50 Ratio, B* (JAK3): 140
IC50 (HPK1): ≤ 100 nM

COc1ccc2c(c1)N(c1nc(Nc3cc4c(cc3OC)CCN(C)C4)ncc1Cl)CC2C(=O)O (stereo not drawn) [Example 107, 1-(5-Chloro-2-((6-methoxy-2-methyl-1,2,3,4-tetrahydroisoquinolin-7-yl)amino)pyrimidin-4-yl)-6-methoxyindoline-3-carboxylic acid]
IC50 (JAK3): > 1000 nM
JAKs/HPK1 IC50 Ratio, B* (JAK3): 2200
IC50 (HPK1): ≤ 100 nM

COc1cc2c(cc1Nc1ncc(Cl)c(N3CC(C(=O)O)c4c(OC)cccc43)n1)CN(C)CC2 (stereo not drawn) [Example 108, 1-(5-Chloro-2-((6-methoxy-2-methyl-1,2,3,4-tetrahydroisoquinolin-7-yl)amino)pyrimidin-4-yl)-4-methoxyindoline-3-carboxylic acid]
IC50 (JAK3): > 1000 nM
JAKs/HPK1 IC50 Ratio, B* (JAK3): 886
IC50 (HPK1): ≤ 100 nM

COc1cc2c(cc1Nc1ncc(F)c(N3CC(C(=O)O)c4ccccc43)n1)CN(C)CC2 (stereo not drawn) [Example 109, 1-(5-Fluoro-2-((6-methoxy-2-methyl-1,2,3,4-tetrahydroisoquinolin-7-yl)amino)pyrimidin-4-yl)indoline-3-carboxylic acid]
IC50 (JAK3): 500 to 1000 nM
JAKs/HPK1 IC50 Ratio, B* (JAK3): 269
IC50 (HPK1): ≤ 100 nM

COc1cc2c(cc1Nc1ncc(C#N)c(N3CC(C(=O)O)c4ccccc43)n1)CN(C)CC2 (stereo not drawn) [Example 110, 1-(5-Cyano-2-((6-methoxy-2-methyl-1,2,3,4-tetrahydroisoquinolin-7-yl)amino)pyrimidin-4-yl)indoline-3-carboxylic acid]
IC50 (JAK3): > 1000 nM
JAKs/HPK1 IC50 Ratio, B* (JAK3): 477
IC50 (HPK1): ≤ 100 nM

COC(=O)C1CN(c2nc(Nc3cc4c(cc3OC)CCN(C)C4)ncc2C(F)F)c2ccccc21 (stereo not drawn) [Example 112]
IC50 (JAK3): > 1000 nM
JAKs/HPK1 IC50 Ratio, B* (JAK3): >3309
IC50 (HPK1): ≤ 100 nM

COc1cc2c(cc1Nc1ncc(Cl)c(-n3nc(C(=O)O)c4ccccc43)n1)CN(C)CC2 [Example 113]
IC50 (JAK3): > 1000 nM
JAKs/HPK1 IC50 Ratio, B* (JAK3): 293
IC50 (HPK1): ≤ 100 nM

COC(=O)C1CN(c2nc(Nc3cc4c(cc3OC)CCN(C)C4)ncc2Cl)c2ccccc21 (stereo not drawn) [Example 115, Methyl 1-(5-chloro-2-((6-methoxy-2-methyl-1,2,3,4-tetrahydroisoquinolin-7-yl)amino)pyrimidin-4-yl)indoline-3-carboxylate]
IC50 (JAK3): > 1000 nM
JAKs/HPK1 IC50 Ratio, B* (JAK3): 1275
IC50 (HPK1): ≤ 100 nM

COC(=O)C1(C)CN(c2nc(Nc3cc4c(cc3OC)CCN(C)C4)ncc2Cl)c2ccccc21 (stereo not drawn) [Example 116]
IC50 (JAK3): > 1000 nM
JAKs/HPK1 IC50 Ratio, B* (JAK3): 890
IC50 (HPK1): ≤ 100 nM

COc1cc2c(cc1Nc1ncc(Cl)c(N3CC(C)(C(N)=O)c4ccccc43)n1)CN(C)CC2 (stereo not drawn) [Example 120, 1-(5-Chloro-2-((6-methoxy-2-methyl-1,2,3,4-tetrahydroisoquinolin-7-yl)amino)pyrimidin-4-yl)-3-methylindoline-3-carboxamide]
IC50 (JAK3): ≤ 100 nM
JAKs/HPK1 IC50 Ratio, B* (JAK3): 120
IC50 (HPK1): ≤ 100 nM

COc1cc2c(cc1Nc1ncc(Cl)c(N3CC(C)(C#N)c4ccccc43)n1)CN(C)CC2 (stereo not drawn) [Example 121, 1-(5-Chloro-2-((6-methoxy-2-methyl-1,2,3,4-tetrahydroisoquinolin-7-yl)amino)pyrimidin-4-yl)-3-methylindoline-3-carbonitrile]
IC50 (JAK3): ≤ 100 nM
JAKs/HPK1 IC50 Ratio, B* (JAK3): 50
IC50 (HPK1): ≤ 100 nM

CNC(=O)C1(C)CN(c2nc(Nc3cc4c(cc3OC)CCN(C)C4)ncc2Cl)c2ccccc21 (stereo not drawn) [Example 122]
IC50 (JAK3): ≤ 100 nM
JAKs/HPK1 IC50 Ratio, B* (JAK3): 100
IC50 (HPK1): ≤ 100 nM

COc1cc2c(cc1Nc1ncc(Cl)c(N3CC(C)(CO)c4ccccc43)n1)CN(C)CC2 (stereo not drawn) [Example 123]
IC50 (JAK3): ≤ 100 nM
JAKs/HPK1 IC50 Ratio, B* (JAK3): 60
IC50 (HPK1): ≤ 100 nM

COc1cc2c(cc1Nc1ncc(Cl)c(N3CC(C)(C(=O)O)c4cc(F)ccc43)n1)CN(C)CC2 (stereo not drawn) [Example 125]
IC50 (JAK3): ≤ 100 nM
JAKs/HPK1 IC50 Ratio, B* (JAK3): 6
IC50 (HPK1): ≤ 100 nM

COc1cc2c(cc1Nc1ncc(Cl)c(N3CC(C)(C(=O)O)c4ccc(F)cc43)n1)CN(C)CC2 (stereo not drawn) [Example 126]
IC50 (JAK3): ≤ 100 nM
JAKs/HPK1 IC50 Ratio, B* (JAK3): 9
IC50 (HPK1): ≤ 100 nM

COc1cc2c(cc1Nc1ncc(Cl)c(N3CC(CC(=O)O)c4ccccc43)n1)CN(C)CC2 (stereo not drawn) [Example 128]
IC50 (JAK3): 100 to 500 nM
JAKs/HPK1 IC50 Ratio, B* (JAK3): 280
IC50 (HPK1): ≤ 100 nM

COc1cc2c(cc1Nc1ncc(Cl)c(-n3cc(CC(=O)O)c4ccccc43)n1)CN(C)CC2 [Example 129]
IC50 (JAK3): 500 to 1000 nM
JAKs/HPK1 IC50 Ratio, B* (JAK3): 640
IC50 (HPK1): ≤ 100 nM

COc1cc2c(cc1Nc1ncc(Cl)c(-n3cc(CC(=O)OC(C)C)c4ccccc43)n1)CN(C)CC2 [Example 130, Isopropyl 2-(1-(5-chloro-2-((6-methoxy-2-methyl-1,2,3,4-tetrahydroisoquinolin-7-yl)amino)pyrimidin-4-yl)-1H-indol-3-yl)acetate]
IC50 (JAK3): > 1000 nM
JAKs/HPK1 IC50 Ratio, B* (JAK3): >243
IC50 (HPK1): ≤ 100 nM

COc1cc2c(cc1Nc1ncc(Cl)c(-n3cc(CC(N)=O)c4ccccc43)n1)CN(C)CC2 [Example 133]
IC50 (JAK3): > 1000 nM
JAKs/HPK1 IC50 Ratio, B* (JAK3): 870
IC50 (HPK1): ≤ 100 nM

COc1cc2c(cc1Nc1ncc(Cl)c(-n3cc(CC#N)c4ccccc43)n1)CN(C)CC2 [Example 134]
IC50 (JAK3): 500 to 1000 nM
JAKs/HPK1 IC50 Ratio, B* (JAK3): 243
IC50 (HPK1): ≤ 100 nM

COc1cc2c(cc1Nc1ncc(Cl)c(-n3cc(Cc4nn[nH]n4)c4ccccc43)n1)CN(C)CC2 [Example 135, N-(4-(3-((2H-tetrazol-5-yl)methyl)-1H-indol-1-yl)-5-chloropyrimidin-2-yl)-6-methoxy-2-methyl-1,2,3,4-tetrahydroisoquinolin-7-amine]
IC50 (JAK3): 500 to 1000 nM
JAKs/HPK1 IC50 Ratio, B* (JAK3): 269
IC50 (HPK1): ≤ 100 nM

CNC(=O)Cc1cn(-c2nc(Nc3cc4c(cc3OC)CCN(C)C4)ncc2Cl)c2ccccc12 [Example 136]
IC50 (JAK3): 500 to 1000 nM
JAKs/HPK1 IC50 Ratio, B* (JAK3): 438
IC50 (HPK1): ≤ 100 nM

COc1cc2c(cc1Nc1ncc(Cl)c(-n3cc(CC(=O)NCC#N)c4ccccc43)n1)CN(C)CC2 [Example 137]
IC50 (JAK3): > 1000 nM
JAKs/HPK1 IC50 Ratio, B* (JAK3): 1304
IC50 (HPK1): ≤ 100 nM

COc1cc2c(cc1Nc1ncc(Cl)c(-n3cc(CC(=O)O)c4cc(F)ccc43)n1)CN(C)CC2 [Example 138]
IC50 (JAK3): 100 to 500 nM
JAKs/HPK1 IC50 Ratio, B* (JAK3): 382
IC50 (HPK1): ≤ 100 nM

COc1cc2c(cc1Nc1ncc(Cl)c(-n3cc(CC(=O)O)c4ccc(F)cc43)n1)CN(C)CC2 [Example 139]
IC50 (JAK3): 100 to 500 nM
JAKs/HPK1 IC50 Ratio, B* (JAK3): 520
IC50 (HPK1): ≤ 100 nM

COc1cc2c(cc1Nc1ncc(Cl)c(-n3cc(CC(=O)O)c4cc(F)c(F)cc43)n1)CN(C)CC2 [Example 140]
IC50 (JAK3): 500 to 1000 nM
JAKs/HPK1 IC50 Ratio, B* (JAK3): 783
IC50 (HPK1): ≤ 100 nM

COc1cc2c(cc1Nc1ncc(Cl)c(-n3nc(CC(=O)O)c4ccccc43)n1)CN(C)CC2 [Example 141]
IC50 (JAK3): > 1000 nM
JAKs/HPK1 IC50 Ratio, B* (JAK3): 541
IC50 (HPK1): ≤ 100 nM

COc1cc2c(cc1Nc1ncc(Cl)c(-n3cc(C(C)C(=O)O)c4ccccc43)n1)CN(C)CC2 (stereo not drawn) [Example 142]
IC50 (JAK3): 500 to 1000 nM
JAKs/HPK1 IC50 Ratio, B* (JAK3): 117
IC50 (HPK1): ≤ 100 nM

COC(=O)CC1(C)CN(c2nc(Nc3cc4c(cc3OC)CCN(C)C4)ncc2Cl)c2ccccc21 (stereo not drawn) [Example 145]
IC50 (JAK3): > 1000 nM
JAKs/HPK1 IC50 Ratio, B* (JAK3): 476
IC50 (HPK1): ≤ 100 nM

COc1cc2c(cc1Nc1ncc(Cl)c(N3CC(C)(CC(=O)O)c4ccccc43)n1)CN(C)CC2 (stereo not drawn) [Example 146]
IC50 (JAK3): ≤ 100 nM
JAKs/HPK1 IC50 Ratio, B* (JAK3): 90
IC50 (HPK1): ≤ 100 nM

CCOC(=O)CC1(C)CN(c2nc(Nc3cc4c(cc3OC)CCN(C)C4)ncc2Cl)c2ccccc21 (stereo not drawn) [Example 149]
IC50 (JAK3): > 1000 nM
JAKs/HPK1 IC50 Ratio, B* (JAK3): >944
IC50 (HPK1): ≤ 100 nM
